Measured values published in patent US10597388B2, “Pyridazinone herbicides” (FMC CORPORATION, priority 2014, dated 2020).

Assays:
Format in all cases: in vivo
[1] = system: blackgrass (Alopecurus myosuroides); test: Test A greenhouse herbicide test, postemergence; settings: for pest or weed control at 125 g/ha / pest or weed control at 500 g/ha: Alopecurus myosuroides, post-emergence, 240 h; for pest or weed control at 125 g/ha: read-out: Plant response rating, Blackgrass; for pest or weed control at 500 g/ha / Blackgrass plant response rating: 0 is no effect, 100 is complete control; for pest or weed control at 500 g/ha: read-out: Blackgrass plant response rating
Outline: (§1)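 Scores are visual injury ratings from 0 (no effect) to 100 (complete control) versus untreated plants, taken roughly 10 d after treatment in the greenhouse. Treatment was postemergence, on one- to two-leaf plants 2–10 cm high growing in a loam soil/sand mix.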

[2] = system: galium (catchweed bedstraw, Galium aparine); test: Test A greenhouse herbicide test, postemergence; settings: for pest or weed control at 125 g/ha / pest or weed control at 500 g/ha: Galium, post-emergence, 240 h; for pest or weed control at 125 g/ha: read-out: Plant response rating, Galium; for pest or weed control at 500 g/ha / Galium plant response rating: 0 is no effect, 100 is complete control; for pest or weed control at 500 g/ha: read-out: Galium plant response rating
Outline: as §1

[3] = system: barnyardgrass (Echinochloa crus-galli); test: Test B flooded paddy test; settings: 250 g ai/ha, Flood, visual rating on scale of 0 to 100 where 0 is no effect and 100 is complete control, 13 to 15 d after treatment; for pest or weed control at 250 g/ha: Echinochloa crus-galli, 360 h, read-out: Plant response rating, Barnyardgrass
Outline: (§2)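 Ratings use a 0-100 visual scale, where 100 is complete control, and compare treated plants with controls after 13 to 15 d of greenhouse growth. Compound went straight into paddy water kept 3 cm over the soil surface, applied to seedlings at the 2-leaf stage.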

[4] = system: ducksalad (Heteranthera limosa); test: Test B flooded paddy test; settings: 250 g ai/ha, Flood, visual rating on scale of 0 to 100 where 0 is no effect and 100 is complete control, 13 to 15 d after treatment; for pest or weed control at 250 g/ha: Heteranthera limosa, 360 h, read-out: Plant response rating, Ducksalad
Outline: as §2

rice (Oryza sativa) = test: Test B flooded paddy test; settings: 250 g ai/ha, Flood, visual rating on scale of 0 to 100 where 0 is no effect and 100 is complete control, 13 to 15 d after treatment; for plant injury at 250 g/ha: Oryza sativa, 360 h, read-out: Plant response rating, Rice
Outline: as §2

[5] = system: sedge, umbrella (small-flower umbrella sedge, Cyperus difformis); test: Test B flooded paddy test; settings: 250 g ai/ha, Flood, visual rating on scale of 0 to 100 where 0 is no effect and 100 is complete control, 13 to 15 d after treatment; for pest or weed control at 250 g/ha: Cyperus difformis, 360 h, read-out: Plant response rating, Sedge, Umbrella
Outline: as §2

[6] = system: chickweed (common chickweed, Stellaria media); test: Test C greenhouse herbicide test, postemergence
Outline: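 Postemergence foliar treatment, 1- to 4-leaf stage (2–18 cm), peat/vermiculite medium; greenhouse 13–15 d; visual rating vs controls, 0 = no effect, 100 = complete control; dash = no result.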

[7] = 125 g ai/ha, visual rating after approx. 10 d, 0 to 100 scale (0 no effect, 100 complete control)
[8] = Postemergence, 31 g ai/ha, 0 to 100 scale (0 no effect, 100 complete control)
[9] = Postemergence, 125 g ai/ha, scale 0 to 100, 0 is no effect, 100 is complete control
[10] = Postemergence, 250 g ai/ha, scale 0 to 100, 0 no effect, 100 complete control, 13 to 15 d
[11] = postemergence, 62 g ai/ha, scale 0 to 100, 0 no effect, 100 complete control
[12] = 125 g ai/ha, 0 to 100 scale where 0 is no effect and 100 is complete control
[13] = 500 g ai/ha, visual rating after approx. 10 d, 0 to 100 scale (0 no effect, 100 complete control)
[14] = 125 g ai/ha, 0 to 100 scale, 0 no effect, 100 complete control

SMILES | Chickweed plant response rating [6, 8] | Plant response rating, Chickweed [6, 9] | Plant response rating, Chickweed [6, 10] | Chickweed plant response rating [6, 11] | Blackgrass plant response rating ([1]; 500 g ai/ha, 0 to 100 scale) | Galium plant response rating ([2]; 500 g ai/ha, 0 to 100 scale) | Plant response rating, Barnyardgrass [3] | Plant response rating, Ducksalad [4] | Plant response rating, Rice (rice (Oryza sativa)) | Plant response rating, Sedge, Umbrella [5] | Plant response rating, Blackgrass [1, 12] | Plant response rating, Galium [2, 12] | Plant response rating, Galium [2, 13] | Plant response rating, Blackgrass [1, 13] | also measured
CC(=O)Oc1c(C)nn(C)c(=O)c1-c1c(C)oc2ccc(C)cc12 [Compound 14, 5-(acetyloxy)-4-(2,5-dimethyl-3-benzofuranyl)-2,6-dimethyl-3(2H)-pyridazinone] | 90 | 90 | 90 | 90 |  |  |  |  |  |  |  |  |  |  | pest or weed control at 125 g/ha [1, 7]: 20%; pest or weed control at 500 g/ha ([1]; 500 g ai/ha, 0 to 100 scale): 30%; pest or weed control at 125 g/ha [2, 7]: 80%; pest or weed control at 500 g/ha ([2]; 500 g ai/ha, 0 to 100 scale): 90%; pest or weed control at 250 g/ha [3]: 0%; pest or weed control at 250 g/ha [4]: 0%; plant injury at 250 g/ha (rice (Oryza sativa)): 0%; pest or weed control at 250 g/ha [5]: 0%
CC(=O)Oc1c(C)nn(C)c(=O)c1-c1c(C)oc2c(C)cc(C)cc12 [Compound 16, 5-(acetyloxy)-2,6-dimethyl-4-(2,5,7-trimethyl-3-benzofuranyl)-3(2H)-pyridazinone] | 75 | 90 | 90 | 80 |  |  |  |  |  |  |  |  |  |  | pest or weed control at 125 g/ha [1, 7]: 10%; pest or weed control at 500 g/ha ([1]; 500 g ai/ha, 0 to 100 scale): 30%; pest or weed control at 125 g/ha [2, 7]: 90%; pest or weed control at 500 g/ha ([2]; 500 g ai/ha, 0 to 100 scale): 100%; pest or weed control at 250 g/ha [3]: 0%; pest or weed control at 250 g/ha [4]: 30%; plant injury at 250 g/ha (rice (Oryza sativa)): 0%; pest or weed control at 250 g/ha [5]: 0%
COc1nn(C)c(=O)c(-c2c(C)sc3ccccc23)c1O [Compound 33] | 85 | 90 | 95 | 90 | 40 | 100 | 0 | 0 | 0 | 0 |  |  |  |  | Plant response rating, Blackgrass [1, 7]: 10; Plant response rating, Galium [2, 7]: 90
Cc1cc(C)c2ccccc2c1-c1c(O)cnn(C)c1=O [Compound 51] | 50 | 70 | 90 | 55 | 60 | 100 | 0 | 0 | 0 | 0 | 30 | 90 |  |  | 
Cc1ccc2ccccc2c1-c1c(O)cnn(C)c1=O [Compound 56] | 5 | 55 | 70 | 10 | 50 | 100 | 0 | 0 | 0 | 0 | 30 | 90 |  |  | 
Cc1nn(C)c(=O)c(-c2c(C)sc3ccccc23)c1O [Compound 65] | 55 | 90 | 90 | 90 | 70 | 100 | 0 | 0 | 0 | 0 | 20 | 90 |  |  | 
CC(=O)Oc1c(C#N)nn(C)c(=O)c1-c1c(C)ccc2ccccc12 [Compound 98] | 95 | 100 | 100 | 100 | 30 |  | 45 | 75 | 30 | 60 | 30 | 100 | 100 |  | 
CCC(=O)Oc1c(C)nn(C)c(=O)c1-c1ccc(Br)c2ccccc12 [Compound 133] |  |  |  |  |  |  | 0 | 0 | 20 | 0 | 60 | 100 | 100 | 60 | 
COC(=O)Oc1c(Br)nn(C)c(=O)c1-c1c(C)ccc2ccccc12 [Compound 137] |  |  |  |  |  |  | 25 | 40 | 0 | 65 | 90 | 100 | 100 | 100 | 
COc1nn(C)c(=O)c(-c2c(C)ccc3ccccc23)c1OC(C)=O [Compound 138] |  |  |  |  |  |  | 0 | 0 | 0 | 0 | 80 | 100 | 100 | 90 | 
Cc1ccc2ccccc2c1-c1c(OC(=O)N2CCOCC2)c(Br)nn(C)c1=O [Compound 176] |  |  |  |  |  |  | 0 | 0 | 0 | 0 |  |  | 100 | 30 | Plant response rating, Blackgrass [1, 14]: 30; Plant response rating, Galium [2, 14]: 90
